Source: patent US10640495B2, “Heterocycle derivatives having TrkA inhibitory activity” (Shionogi & Co., Ltd., priority 2015, dated 2020)

molecular target: human TrkA (Homo sapiens (Human), UniProt P04629); assay: Human TrkA inhibition assay (Test Example 2); format: biochemical; details: Table 153, human TrkA inhibition; read-out: IC50
Experimental: Seven point five μL per well of human TrkA (PV3144, Lifetechnologies, final concentration: 1 nmol/L) suspended in the assay buffer (100 mmol/L 4-(2-hydroxyethyl)-1-piperazineethanesulfonic acid (HEPES), 10 mmol/L magnecium chloride, 0.003 vol % Brij-35, 0.004 vol % Tween20 and 1 mmol/L dithiothreitol (DTT)) was applied in a 384 well plate and the plate was pre-incubated for 15 min at room temperature with 0.4 μL of each compound (final concentration: 200 μmol/L-1 pmol/L) dissolved in DMSO. Then, fluorescent substrate (FL-peptide 27, 760424, PerkinElmer, final concentration: 1.5 μmol/L) and ATP (final concentration 500 μmol/L) dissolved in the assay buffer was added in each well. After the incubation of 120 min at 37° C., fifteen μL of termination buffer (100 mmol/L HEPES, 40 mmol/L ethylenediaminetetraacetic acid (EDTA), 10 mmol/L magnecium chloride, 0.003 vol % Brij-35, 0.004 vol % Tween20, 1 mmol/L DTT and 0.16 vol % Coating Reagent 3) was added in each well to stop the enzyme reaction. Fluorescent intensities (FI) of phosphorylated and non-phosphorylated fluorescent substrates were measured by LabChip EZReader II (Caliper LifeSciences, Inc.), and conversion ratio (CR) was calculated by the following formula-1. The CR in the well applied with DMSO alone was used as a negative control and the CR in the well without applying TrkA was used as a positive control. The inhibitory effect of each compound on TrkA phosphorylation was calculated by the following formula-2. CR (%)=(FI of phosphorylated substrate/(FI of phosphorylated substrate+FI of non-phosphorylated substrate))×100 (Formula-1) Phosphorylation inhibition (%)=(1−(CR with compound treatment−CR of positive control)/(CR of negative control−CR of positive control))×100 (Formula-2)
IC50 values (nmol/L) were determined by the logistic regression using the inhibition data in 10 points of 3-fold dilution series at a compound concentration range of 20 nmol/L to 1 pmol/L, or 10 points of 3-fold dilution series at the range of 2 μmol/L to 0.1 nmol/L, or 10 points of 3-fold dilution series at the range of 200 μmol/L to 10 nmol/L, or 15 points of 3-fold dilution series at the range of 200 μmol/L to 0.04 nmol/L.
The evaluation results of the compounds in the present invention are indicated as follows. IC50 values of 0 to 100 nM, 100 to 1000 nM and over 1000 nM were shown as “A”, “B” and “C”, respectively.

Chain of human TrkA (P04629 440-796): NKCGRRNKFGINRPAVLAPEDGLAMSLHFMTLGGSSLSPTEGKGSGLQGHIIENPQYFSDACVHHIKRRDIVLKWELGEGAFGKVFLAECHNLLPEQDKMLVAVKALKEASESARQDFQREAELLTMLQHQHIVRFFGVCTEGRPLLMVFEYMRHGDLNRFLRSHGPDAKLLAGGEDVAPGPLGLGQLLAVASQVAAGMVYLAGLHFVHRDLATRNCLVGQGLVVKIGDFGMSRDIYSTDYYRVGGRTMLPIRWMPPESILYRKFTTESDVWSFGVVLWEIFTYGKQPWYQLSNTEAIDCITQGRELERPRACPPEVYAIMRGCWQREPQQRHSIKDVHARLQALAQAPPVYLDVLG

SMILES	IC50
COCCN1C[C@@H](NC(=O)Nc2c(C)c(-c3cnc(C)nc3)nn2-c2ccccc2)[C@H](c2ccc(F)cc2)O1 (racemic) [Compound I-117]	< 100 nM
COCCN1C[C@@H](NC(=O)Nc2c(C)c(-c3cnc4c(c3)nnn4C)nn2-c2ccccc2)[C@H](c2ccc(F)cc2)O1 (racemic) [Compound I-118]	< 100 nM
COCCN1C[C@@H](NC(=O)Nc2c(C)c(-c3cnc(N(C(=O)OC(C)(C)C)C4CC4)nc3)nn2-c2ccccc2)[C@H](c2ccnc(F)c2)O1 (racemic) [Compound I-120]	< 100 nM
COCCN1C[C@@H](NC(=O)Nc2c(C)c(-c3cnc4c(c3)oc(=O)n4C)nn2-c2ccccc2)[C@H](c2cnc(F)c(F)c2)O1 (racemic) [Compound I-123]	< 100 nM
COCCN1C[C@@H](NC(=O)Nc2c(C)c(-c3cc(COC(C)=O)c(=O)n(C)c3)nn2-c2ccccc2)[C@H](c2ccc(F)c(F)c2)O1 (racemic) [Compound I-124]	< 100 nM
COCCN1C[C@@H](NC(=O)Nc2c(C)c(-c3cc(CO)c(=O)n(C)c3)nn2-c2ccccc2)[C@H](c2ccc(F)c(F)c2)O1 (racemic) [Compound I-125]	< 100 nM
COCCN1C[C@@H](NC(=O)Nc2c(C)c(-c3cnc4c(c3)nnn4C)nn2-c2ccccc2)[C@H](c2ccc(F)c(F)c2)O1 (racemic) [Compound I-126]	< 100 nM
COCCN1C[C@@H](NC(=O)Nc2c(C)c(-c3cnc4c(c3)nnn4C)nn2-c2ccccc2)[C@H](c2cnc(F)c(F)c2)O1 (racemic) [Compound I-127]	< 100 nM
COCCN1C[C@@H](NC(=O)Nc2c(C)c(-c3ccc(C#N)nc3)nn2-c2ccccc2)[C@H](c2ccc(F)c(F)c2)O1 (racemic) [Compound I-129]	< 100 nM
COCCN1C[C@@H](NC(=O)Nc2c(C)c(-c3cnc(NC4CC4)nc3)nn2-c2ccccc2)[C@H](c2ccnc(F)c2)O1 (racemic) [Compound I-131]	< 100 nM
COCCN1C[C@@H](NC(=O)Nc2c(C)c(-c3cnc(N(C)C)nc3)nn2-c2ccccc2)[C@H](c2ccnc(F)c2)O1 (racemic) [Compound I-132]	< 100 nM
COCCN1C[C@@H](NC(=O)Nc2c(C)c(-c3cnc4nccnc4c3)nn2-c2ccccc2)[C@H](c2ccc(F)c(F)c2)O1 (racemic) [Compound I-134]	< 100 nM

Next, values leading:

IC50	SMILES
< 100 nM	COCCN1C[C@@H](NC(=O)Nc2c(C)c(-c3cnn(C)c3)nn2-c2ccccc2)[C@H](c2cnc(Cl)s2)O1 (racemic) [Compound I-137]
< 100 nM	CNC(=O)c1cc(-c2nn(-c3ccccc3)c(NC(=O)N[C@@H]3CN(CCOC)O[C@H]3c3ccc(F)cc3)c2C)cn(C)c1=O (racemic) [Compound I-138]
< 100 nM	COCCN1C[C@@H](NC(=O)Nc2c(C)c(-c3cnn(C)c3)nn2-c2ccccc2)[C@H](c2cccc(F)c2)O1 (racemic) [Compound I-139]
< 100 nM	COCCN1C[C@@H](NC(=O)Nc2c(C)c(-c3cnc(C)nc3)nn2-c2ccccc2)[C@H](c2cccc(F)c2)O1 (racemic) [Compound I-140]
< 100 nM	COCCN1C[C@@H](NC(=O)Nc2c(C)c(-c3cnc4c(c3)ncn4C)nn2-c2ccccc2)[C@H](c2cccc(F)c2)O1 (racemic) [Compound I-141]
< 100 nM	COCCN1C[C@@H](NC(=O)Nc2c(C)c(-c3cnc4c(c3)nnn4C)nn2-c2ccccc2)[C@H](c2cccc(F)c2)O1 (racemic) [Compound I-142]
< 100 nM	CNC(=O)c1cc(-c2nn(-c3ccccc3)c(NC(=O)N[C@@H]3CN(CCOC)O[C@H]3c3cccc(F)c3)c2C)cn(C)c1=O (racemic) [Compound I-143]

same assay, conditions: human TrkA 1 nmol/L, ATP 500 μmol/L, 120 min at 37° C.; read-out: IC50 values (TrkA phosphorylation inhibition)

IC50	SMILES
4 nM	COCCN1C[C@@H](NC(=O)Nc2c(C)c(-c3cnc(OC)nc3)nn2-c2ccccc2)[C@H](c2ccnc(F)c2)O1 (racemic) [Compound I-119]
2.7 nM	COCCN1C[C@@H](NC(=O)Nc2c(C)c(-c3cnc4c(c3)oc(=O)n4C)nn2-c2ccccc2)[C@H](c2ccnc(F)c2)O1 (racemic) [Compound I-122]
30 nM	COCCN1C[C@@H](c2ccnc(F)c2)[C@H](NC(=O)Nc2c(C)c(-c3cnn(C)c3)nn2-c2ccccc2)O1 (racemic) [Compound I-136]
